Source: patent US9585891B2 (MERCK PATENT GMBH, priority 2012, dated 2017)

Experiments:
[1] = biological target: T1, Human recombinant Vanin-1 (VNN1) (Homo sapiens, UniProt O95497); test: Vanin-1 enzymatic assay (fluorescence intensity, Pantothenate-AMC substrate); type: biochemical; details: purified recombinant human Vanin-1 0.5 nM; 30 min preincubation at 30° C.; Pantothenate-AMC 30 μM, 60 min
T1 construct: purchased Sino Biological Inc. 11662-H08H
T1 sequence (O95497 22-491): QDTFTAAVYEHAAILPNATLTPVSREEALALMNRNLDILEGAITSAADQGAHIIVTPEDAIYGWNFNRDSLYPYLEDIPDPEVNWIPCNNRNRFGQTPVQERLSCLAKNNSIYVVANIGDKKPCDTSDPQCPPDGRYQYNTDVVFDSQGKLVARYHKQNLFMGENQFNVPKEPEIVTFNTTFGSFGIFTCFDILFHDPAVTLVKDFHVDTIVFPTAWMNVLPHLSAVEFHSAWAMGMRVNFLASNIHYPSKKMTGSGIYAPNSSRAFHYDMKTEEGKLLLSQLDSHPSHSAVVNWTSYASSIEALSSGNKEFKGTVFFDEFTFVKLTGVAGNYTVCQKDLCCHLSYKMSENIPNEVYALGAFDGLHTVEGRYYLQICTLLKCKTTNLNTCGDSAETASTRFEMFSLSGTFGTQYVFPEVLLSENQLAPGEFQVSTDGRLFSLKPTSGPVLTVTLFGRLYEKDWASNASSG
Method: Human recombinant Vanin-1 (VNN1) was purchased from Sino Biological Inc. (Catalog Number: 11662-H08H).
Measurement of VNN1 inhibition is performed in 384-well format based on fluorescence intensity assay. Purified recombinant human Vanin-1 (0.5 nM) and threefold serial diluted compounds in 3% DMSO (range of concentrations from 30 μM to 1.524 nM) or controls (3.0% DMSO) are incubated for 30 minutes at 30° C. with gentle agitation in assay buffer containing 100 mM potassium Phosphate Buffer (KPi), pH 7.5, 0.001% Bovine Serum Albumin (BSA), 0.5 mM dithiothreitol (DTT) and 0.0025% Brij-35. The reaction is initiated by the addition of the fluorogenic substrate, Pantothenate-AMC, at a concentration of 30 μM. After 60 minutes of incubation at 30° C. with gentle agitation, fluorescence intensity is measured at λex=350 nm and λem=450 nm with a fluorescence reader (BMG PHERAstar reader or equivalent).

[2] = biological target: T2, Vanin-1 in SUIT-S2 cell line (Homo sapiens, UniProt O95497); test: Vanin-1 cell-based mechanistic assay (fluorescence intensity, Pantothenate-AMC substrate); details: 40000 cells per well, 2 hours incubation at 37° C., Pantothenate-AMC 30 μM, 30 min
T2 construct: endogenous in cells; host or cells: SUIT-S2 cell line (ATCC # CRL1596)
T2 sequence (O95497 22-491): T1 sequence (O95497 22-491)
Method: Vanin-1 Cell-Based Mechanistic Assay:
The cellular activity of the examples is measured in 96-well format based on fluorescence intensity assay using SUIT-S2 cell line (ATCC # CRL1596).
Cells are cultured at 37° C. with 5% CO2 to 80-90% confluence and then washed once with phosphate-buffered saline (PBS). Adherent cells are detached with PBS-EDTA and once in suspension 40000 cells are dispensed in 90 μl of PBS in 96-well black plates with clear bottoms. Threefold serial dilutions of test compounds are made in DMSO and then solubilized in PBS, dilution range 1:30. Cells and serial diluted test compounds (final concentrations 10 μM to 4.6 nM) or controls (PBS/0.3% DMSO) are incubated for 2 hours at 37° C. with 5% CO2. The reaction is initiated by the addition of the fluorogenic substrate, Pantothenate-AMC, at a concentration of 30 μM. After 30 minutes of incubation at 30° C. with gentle agitation, fluorescence intensity is measured at λex=350 nm and λem=450 nm with a fluorescence reader (BMG PHERAstar reader or equivalent).

Row | Structure (SMILES) | IC50 [1] [µM] | IC50 [2] [µM]
1 | CC(C)(CO)[C@@H](O)C(=O)NCCC(=O)C(=O)NCc1ccc(-c2ccccc2)cc1 [Example 28, (R)—N-{3-[(Biphenyl-4-ylmethyl)-carbamoyl]-3-oxo-propyl}-2,4-dihydroxy-3,3-dimethyl-butyramide] | 0.02 | 0.1
2 | CC(C)(CO)[C@@H](O)C(=O)NCCC(=O)C(=O)NCc1ccccc1 [Example 9, (R)—N-(3-Benzylcarbamoyl-3-oxo-propyl)-2,4-dihydroxy-3,3-dimethyl-butyramide] | 0.04 | 0.03
3 | CC(C)(CO)[C@@H](O)C(=O)NCCC(=O)C(=O)NCc1ccc(OCCNS(C)(=O)=O)cc1 [Example 39, (R)-2,4-Dihydroxy-N-(3-[4-(2-methanesulfonylamino-ethoxy)-benzylcarbamoyl]-3-oxo-propyl)-3,3-dimethyl-butyramide] | 0.02 | < 0.01
4 | CC(C)(CO)[C@@H](O)C(=O)NCCN(CC1CCN(c2ccc(C#N)cc2)CC1)C(=O)CCl [Example 62, (R)—N-(2-{(2-Chloro-acetyl)-[1-(4-cyano-phenyl)-piperidin-4-ylmethyl]-amino}-ethyl)-2,4-dihydroxy-3,3-dimethyl-butyramide] | 1.36 | 0.21
5 | CC(C)(CO)[C@@H](O)C(=O)NCCN(CCc1ccccc1)C(=O)CCl [Example 59, (R)—N-{2-[(2-Chloro-acetyl)-phenethyl-amino]-ethyl}-2,4-dihydroxy-3,3-dimethyl-butyramide] | 4.04 | 1.2
6 | CC(C)(CO)[C@@H](O)C(=O)NCCC(=O)C(N)=O [Example 7, (R)—N-(3-Carbamoyl-3-oxo-propyl)-2,4-dihydroxy-3,3-dimethyl-butyramide] | 0.83 | 1.49
7 | CC(C)(CO)[C@@H](O)C(=O)NCCC(=O)C(=O)NCC1CCCCC1 [Example 11, (R)—N-[3-(Cyclohexylmethyl-carbamoyl)-3-oxo-propyl]-2,4-dihydroxy-3,3-dimethyl-butyramide] | 0.03 | 0.073
8 | CC(C)(CO)[C@@H](O)C(=O)NCCC(=O)C(=O)NCc1ccc(Br)cc1 [Example 31, (R)—N-[3-(4-Bromo-benzylcarbamoyl)-3-oxo-propyl]-2,4-dihydroxy-3,3-dimethyl-butyramide] | < 0.01 | 0.01
9 | CC(C)(CO)[C@@H](O)C(=O)NCCNC(=O)CCl [Example 57, (R)—N-[2-(2-Chloro-acetylamino)-ethyl]-2,4-dihydroxy-3,3-dimethyl-butyramide] | 2.54 | 1.11
10 | CC(C)(CO)[C@@H](O)C(=O)NCCC(=O)C(=O)NCc1ccccc1C(F)(F)F [Example 23, (R)-2,4-Dihydroxy-3,3-dimethyl-N-[3-oxo-3-(2-trifluoromethyl-benzylcarbamoyl)-propyl]-butyramide] | 0.07 | 0.05
11 | CC(C)(CO)[C@@H](O)C(=O)NCCC(=O)C(=O)NCc1ccc(S(=O)(=O)N2CCCCC2)cc1 [Example 33, (R)-2,4-Dihydroxy-3,3-dimethyl-N-{3-oxo-3-[4-(piperidine-1-sulfonyl)-benzylcarbamoyl]-propyl}-butyramide] | < 0.01 | < 0.01
12 | COc1cccc(CNC(=O)C(=O)CCNC(=O)[C@H](O)C(C)(C)CO)c1 [Example 22, (R)-2,4-Dihydroxy-N-[3-(3-methoxy-benzylcarbamoyl)-3-oxo-propyl]-3,3-dimethyl-butyramide] | 0.06 | 0.03
13 | CC(C)(CO)[C@@H](O)C(=O)NCCC(=O)C(=O)NCc1cccc2ccccc12 [Example 19, (R)-2,4-Dihydroxy-3,3-dimethyl-N-{3-[(naphthalen-1-ylmethyl)-carbamoyl]-3-oxo-propyl}-butyramide] | 0.03 | 0.05
14 | CC(C)(CO)[C@@H](O)C(=O)NCCC(=O)C(=O)NCCc1cccs1 [Example 14, (R)-2,4-Dihydroxy-3,3-dimethyl-N-[3-oxo-3-(2-thiophen-2-yl-ethylcarbamoyl)-propyl]-butyramide] | 0.05 | 0.09
15 | CC(C)(CO)[C@@H](O)C(=O)NCCC(=O)C(=O)NC1CC1 [Example 8, (R)—N-(3-Cyclopropylcarbamoyl-3-oxo-propyl)-2,4-dihydroxy-3,3-dimethyl-butyramide] | 1.68 | 3.54
16 | CC(C)(CO)[C@@H](O)C(=O)NCCC(=O)C(=O)NCc1ccc(-c2ccc(C(=O)O)cc2)cc1 [Example 55, 4′-{[4-((R)-2,4-Dihydroxy-3,3-dimethyl-butyrylamino)-2-oxo-butyrylamino]-methyl}-biphenyl-4-carboxylic acid] | < 0.01 | –
17 | COC(=O)c1ccc(-c2ccc(CNC(=O)C(=O)CCNC(=O)[C@H](O)C(C)(C)CO)cc2)cc1 [Example 56, 4′-{[4-((R)-2,4-Dihydroxy-3,3-dimethyl-butyrylamino)-2-oxo-butyrylamino]-methyl}-biphenyl-4-carboxylic acid methyl ester] | 0.01 | –
18 | CC(C)(CO)[C@@H](O)C(=O)NCCC(=O)C(=O)NCC1CCCO1 (stereo partly drawn) [Example 29, (R)-2,4-Dihydroxy-3,3-dimethyl-N-(3-oxo-3-[(tetrahydro-furan-2-ylmethyl)-carbamoyl]-propyl)-butyramide] | 0.7 | –
19 | CC(=O)N1CCC(CNC(=O)C(=O)CCNC(=O)[C@H](O)C(C)(C)CO)CC1 [Example 48, (R)—N-(3-[(1-Acetyl-piperidin-4-ylmethyl)-carbamoyl]-3-oxo-propyl)-2,4-dihydroxy-3,3-dimethyl-butyramide] | 0.11 | –
20 | CC(C)(CO)[C@@H](O)C(=O)NCCC(=O)C(=O)NCc1ccc(N2CCOCC2)cc1 [Example 41, (R)-2,4-Dihydroxy-3,3-dimethyl-N-[3-(4-morpholin-4-yl-benzylcarbamoyl)-3-oxo-propyl]-butyramide] | 0.01 | –
21 | CC(C)(CO)[C@@H](O)C(=O)NCCC(=O)C(=O)NCCOc1ccccc1 [Example 42, (R)-2,4-Dihydroxy-3,3-dimethyl-N-[3-oxo-3-(2-phenoxy-ethylcarbamoyl)-propyl]-butyramide] | 0.34 | –
22 | COCCOc1ccc(CNC(=O)C(=O)CCNC(=O)[C@H](O)C(C)(C)CO)cc1 [Example 50, (R)-2,4-Dihydroxy-N-(3-[4-(2-methoxy-ethoxy)-benzylcarbamoyl]-3-oxo-propyl)-3,3-dimethyl-butyramide] | 0.03 | –
23 | CC(C)(CO)[C@@H](O)C(=O)NCCN(CCOc1ccccc1)C(=O)CCl [Example 63, (R)—N-{2-[(2-Chloro-acetyl)-(2-phenoxy-ethyl)-amino]-ethyl}-2,4-dihydroxy-3,3-dimethyl-butyramide] | 3.55 | –
24 | CC(NC(=O)C(=O)CCNC(=O)[C@H](O)C(C)(C)CO)c1ccccc1 (some centres unmarked) [Example 20] | 3.03 | –
25 | CC(C)(CO)[C@@H](O)C(=O)NCCC(=O)C(=O)N1CCOCC1 [Example 49, (R)-2,4-Dihydroxy-3,3-dimethyl-N-(4-morpholin-4-yl-3,4-dioxo-butyl)-butyramide] | 23 | –
26 | CCOC(=O)c1ccc(CNC(=O)C(=O)CCNC(=O)[C@H](O)C(C)(C)CO)cc1 [Example 45, 4-{[4-((R)-2,4-Dihydroxy-3,3-dimethyl-butyrylamino)-2-oxo-butyrylamino]-methyl}-benzoic acid ethyl ester] | 0.02 | –
